Test results published in patent US20230293526A1, “METHOD FOR TREATING CANCER WITH A REVERSE TRANSCRIPTASE INHIBITOR” (PrimeFour Therapeutics, Inc., priority 2020, published 2023).

Key:
cancer cell lines = experiment: Cancer cell proliferation activity of representative nucleosides, CellTiterGlo 72 h (Example 7, Tables 8 and 9); type: cell-based
Procedure, shortened: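 Cancer cell lines seeded and incubated at 37° C overnight, then exposed to nucleosides (final DMSO 0.1%) for 72 h at 37° C with 5% or 10% CO2. Viability read by CellTiterGlo luminescence and normalized to 0.1% DMSO (100%) and 10 μM staurosporine (0%) controls.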

human LINE-1 = experiment: Human LINE-1 (L1) retrotransposition dual-luciferase reporter assay in HeLa cells; type: cell-based; settings: Homo sapiens, HeLa, 72 h, read-out: Human LINE-1 IC50 (Human L1 activity inhibition)
Description: Representative compounds were tested for inhibition of retrotransposition activity of human LINE-1 (L1) retrotransposition reporter assay in HeLa cells according to the following procedure.
Human Cervical Adenocarcinoma Cells (HeLa) were cultured in Dulbecco's Modified Eagle's Medium (DMEM) containing 4500 mg/L glucose, L-glutamine, sodium pyruvate and sodium bicarbonate, supplemented with 10% of heat inactivated fetal bovine serum (FBS). Cells were grown at 37° C. in an atmosphere of 5% CO2. The dual luciferase-encoding plasmid pYX017 was provided by Prof Wenfeng An (Xie, et al., 2011, Nucleic Acids Res).
The reporter assay was performed in 96-well white, optical bottom plates (Thermo Fisher, 165306). 24 hours prior to transfection, HeLa cells were seeded in a density of 2,500 cells per well, in 50 μL of DMEM, 10% FBS media volume. Cells were incubated at 37° C. in an atmosphere of 5% CO2. Seeding was optimized to achieve approximately 30% cell confluency on the day of transfection. A transfection mix was prepared by combining transfection reagent FuGENE® HD (Promega, E2311) and plasmid DNA (100 ng per well) in a 3:1 ratio, in OpiMEM media (Thermo Fisher, 31985062). Next, 5 μL of the transfection mix was combined with 20 μL of DMEM, 10% FBS media, and 25 μL of this mix was added into each well of an assay plate. In each assay plate one column remained untransfected to serve as a blank luminescence signal.
Serial dilution of test compounds was performed in DMSO and transferred to medium. Next, 25 μL of media-diluted compounds series were transferred to an assay plate containing cells and transfection media. The final concentration of DMSO in treated wells was 0.2%. Serial dilutions of compounds were added to an assay plate immediately after transfection. Compounds were tested in triplicates. The assay plate was then incubated with transfection reagent and compounds at 37° C. in an atmosphere of 5% CO2 for 72 hours.
Luciferase reporter activity was quantified with the Dual-Luciferase® Reporter Assay System (Promega) following the manufacturer's manual, with a passive lysis buffer volume increased to 30 μL and lysis incubation time increased to 20 min at room temperature with gentle shaking, to ensure complete cell lysis. Luminescence was measured using a SpectraMax i3×Multi-Mode Microplate Reader, with integration times of 100 ms and 10 ms applied to measure FLuc and RLuc signals, respectively. Relative LNE-1 activity was calculated as Firefly signal/Renilla signal*10,000. In order to determine IC50 values for each compound, dose response data were fit to a logistic using non-linear regression.

- IC50 (cancer cell lines; 72 h, 5637, 72 h (Table 9)): 2.57 µM
- IC50 (cancer cell lines; 72 h, CLS439, 72 h (Table 9)): > 50 µM
- IC50 (cancer cell lines; 72 h, HS729, 72 h (Table 9)): 4.24 µM
- IC50 (cancer cell lines; 72 h, J82, 72 h (Table 9)): 5.43 µM
- IC50 (cancer cell lines; 72 h, JAR, 72 h (Table 9)): 5.41 µM
- IC50 (cancer cell lines; 72 h, MT3, 72 h (Table 9)): 2.64 µM
- IC50 (cancer cell lines; 72 h, PC3, 72 h (Table 9)): 3.12 µM
- IC50 (cancer cell lines; 72 h, RD, 72 h (Table 9)): 3.3 µM
- IC50 (cancer cell lines; 72 h, T24, 72 h (Table 9)): 2.68 µM
- IC50 (cancer cell lines; Homo sapiens, 22Rv1, 72 h, 22RV1, 72 h (Table 9)): > 50 µM
- IC50 (cancer cell lines; Homo sapiens, 786-0, 72 h, 786O, 72 h (Table 9)): 3.31 µM
- IC50 (cancer cell lines; Homo sapiens, A204, 72 h, A204, 72 h (Table 9)): 1.46 µM
- IC50 (cancer cell lines; Homo sapiens, A549, 72 h, A549, 72 h (Table 9)): 2.98 µM
- IC50 (cancer cell lines; Homo sapiens, A673, 72 h, A673, 72 h (Table 9)): 4.57 µM
- IC50 (cancer cell lines; Homo sapiens, A2780, 72 h, A2780, 72 h (Table 9)): 4.93 µM
- IC50 (cancer cell lines; Homo sapiens, A-375, 72 h, A375, 72 h (Table 9)): 2.69 µM
- IC50 (cancer cell lines; Homo sapiens, A-431, 72 h, A431, 72 h (Table 9)): 2.87 µM
- IC50 (cancer cell lines; Homo sapiens, ACHN, 72 h, 72 h (Table 9)): 2.48 µM
- IC50 (cancer cell lines; Homo sapiens, ASPC1, 72 h, ASPC1, 72 h (Table 9)): 4.97 µM
- IC50 (cancer cell lines; Homo sapiens, BT-20, 72 h, BT20, 72 h (Table 9)): 2.79 µM
- IC50 (cancer cell lines; Homo sapiens, BXPC-3, 72 h, BXPC3, 72 h (Table 9)): 2.77 µM
- IC50 (cancer cell lines; Homo sapiens, C-33-A, 72 h, C33A, 72 h (Table 9)): 2.65 µM
- IC50 (cancer cell lines; Homo sapiens, CAKI-1, 72 h, CAKI1, 72 h (Table 9)): 0.69 µM
- IC50 (cancer cell lines; Homo sapiens, COLO 205, 72 h, COLO205, 72 h (Table 9)): 4.98 µM
- IC50 (cancer cell lines; Homo sapiens, COLO-678, 72 h, COLO678, 72 h (Table 9)): 3.11 µM
- IC50 (cancer cell lines; Homo sapiens, Ca-Ski, 72 h, CASKI, 72 h (Table 9)): 5.31 µM
- IC50 (cancer cell lines; Homo sapiens, Caco-2, 72 h, CACO2, 72 h (Table 9)): > 50 µM
- IC50 (cancer cell lines; Homo sapiens, Calu-6, 72 h, CALU6, 72 h (Table 9)): 5.3 µM
- IC50 (cancer cell lines; Homo sapiens, DLD-1, 72 h, DLD1, 72 h (Table 9)): > 50 µM
- IC50 (cancer cell lines; Homo sapiens, DU-145, 72 h, DU145, 72 h (Table 9)): 2.53 µM
- IC50 (cancer cell lines; Homo sapiens, EFO-21, 72 h, EFO21, 72 h (Table 9)): 4.62 µM
- IC50 (cancer cell lines; Homo sapiens, EJ-28, 72 h, EJ28, 72 h (Table 9)): 5.71 µM
- IC50 (cancer cell lines; Homo sapiens, Granta-519, 72 h, GRANTA-519, 72 h (Table 9)): 1.68 µM
- IC50 (cancer cell lines; Homo sapiens, HCT-15, 72 h, HCT15, 72 h (Table 9)): 5.9 µM
- IC50 (cancer cell lines; Homo sapiens, HCT-116, 72 h, HCT116, 72 h (Table 9)): 4.69 µM
- IC50 (cancer cell lines; Homo sapiens, HEK293, 72 h, HEK293, 72 h (Table 9)): 4.16 µM
- IC50 (cancer cell lines; Homo sapiens, HL-60, 72 h, HL-60, 72 h (Table 9)): 3.49 µM
- IC50 (cancer cell lines; Homo sapiens, HT-29, 72 h, HT29, 72 h (Table 9)): 4.63 µM
- IC50 (cancer cell lines; Homo sapiens, HT-1080, 72 h, HT1080, 72 h (Table 9)): 3.19 µM
- IC50 (cancer cell lines; Homo sapiens, HeLa, 72 h, 72 h (Table 9)): 2.98 µM
- IC50 (cancer cell lines; Homo sapiens, HepG2, 72 h, HEPG2, 72 h (Table 9)): 3.14 µM
- IC50 (cancer cell lines; Homo sapiens, Hs-578T, 72 h, HS578T, 72 h (Table 9)): 2.94 µM
- IC50 (cancer cell lines; Homo sapiens, IGROV-1, 72 h, IGROV1, 72 h (Table 9)): 3.03 µM
- IC50 (cancer cell lines; Homo sapiens, IMR-90, 72 h, IMR90, 72 h (Table 9)): 2.46 µM
- IC50 (cancer cell lines; Homo sapiens, JEG-3, 72 h, JEG3, 72 h (Table 9)): 3.95 µM
- IC50 (cancer cell lines; Homo sapiens, JIMT-1, 72 h, JIMT1, 72 h (Table 9)): 1.58 µM
- IC50 (cancer cell lines; Homo sapiens, K562, 72 h, K-562, 72 h (Table 9)): 4.46 µM
- IC50 (cancer cell lines; Homo sapiens, Kasumi 1, 72 h, KASUMI-1, 72 h (Table 9)): 0.96 µM
- IC50 (cancer cell lines; Homo sapiens, L-363, 72 h, L-363, 72 h (Table 9)): 3.21 µM
- IC50 (cancer cell lines; Homo sapiens, LoVo, 72 h, 72 h (Table 9)): 2.79 µM
- IC50 (cancer cell lines; Homo sapiens, MCF7, 72 h, MCF7, 72 h (Table 9)): > 50 µM
- IC50 (cancer cell lines; Homo sapiens, MDA-MB-231, 72 h, MDAMB231, 72 h (Table 9)): 2.56 µM
- IC50 (cancer cell lines; Homo sapiens, MDA-MB-435, 72 h, MDAMB435, 72 h (Table 9)): > 50 µM
- IC50 (cancer cell lines; Homo sapiens, MDA-MB-436, 72 h, MDAMB436, 72 h (Table 9)): 3.59 µM
- IC50 (cancer cell lines; Homo sapiens, MDA-MB-468, 72 h, MDAMB468, 72 h (Table 9)): 4 µM
- IC50 (cancer cell lines; Homo sapiens, MG-63, 72 h, MG63, 72 h (Table 9)): > 50 µM
- IC50 (cancer cell lines; Homo sapiens, MHH-ES-1, 72 h, MHHES1, 72 h (Table 9)): 3.51 µM
- IC50 (cancer cell lines; Homo sapiens, MIA PaCa-2, 72 h, MIAPACA2, 72 h (Table 9)): > 50 µM
- IC50 (cancer cell lines; Homo sapiens, MINO, 72 h, 72 h (Table 9)): 1.34 µM
- IC50 (cancer cell lines; Homo sapiens, MV4-11, 72 h, MV4-11, 72 h (Table 9)): 2.39 µM
- IC50 (cancer cell lines; Homo sapiens, NCI-H23, 72 h, NCI-H23, 72 h (Table 9)): 2.96 µM
- IC50 (cancer cell lines; Homo sapiens, NCI-H82, 72 h, NCIH82, 72 h (Table 9)): 2.73 µM
- IC50 (cancer cell lines; Homo sapiens, NCI-H292, 72 h, NCIH292, 72 h (Table 9)): 3.68 µM
- IC50 (cancer cell lines; Homo sapiens, NCI-H460, 72 h, NCIH460, 72 h (Table 9)): 3.31 µM
- IC50 (cancer cell lines; Homo sapiens, OVCAR-3, 72 h, OVCAR3, 72 h (Table 9)): 4.15 µM
- IC50 (cancer cell lines; Homo sapiens, OVCAR-4, 72 h, OVCAR4, 72 h (Table 9)): 3.1 µM
- IC50 (cancer cell lines; Homo sapiens, PANC-1, 72 h, PANC1, 72 h (Table 9)): > 50 µM
- IC50 (cancer cell lines; Homo sapiens, PLC-PRF-5, 72 h, PLCPRF5, 72 h (Table 9)): > 50 µM
- IC50 (cancer cell lines; Homo sapiens, Panc1005, 72 h, PANC1005, 72 h (Table 9)): 3.87 µM
- IC50 (cancer cell lines; Homo sapiens, Ramos, 72 h, 72 h (Table 9)): 1.88 µM
- IC50 (cancer cell lines; Homo sapiens, SAOS-2, 72 h, SAOS2, 72 h (Table 9)): 1.65 µM
- IC50 (cancer cell lines; Homo sapiens, SF-268, 72 h, SF268, 72 h (Table 9)): > 50 µM
- IC50 (cancer cell lines; Homo sapiens, SF-295, 72 h, SF295, 72 h (Table 9)): 2.91 µM
- IC50 (cancer cell lines; Homo sapiens, SK-BR-3, 72 h, SKBR3, 72 h (Table 9)): 1.76 µM
- IC50 (cancer cell lines; Homo sapiens, SK-HEP1, 72 h, SKHEP1, 72 h (Table 9)): 2.66 µM
- IC50 (cancer cell lines; Homo sapiens, SK-LMS-1, 72 h, SKLMS1, 72 h (Table 9)): 3.35 µM
- IC50 (cancer cell lines; Homo sapiens, SK-MEL-5, 72 h, SKMEL5, 72 h (Table 9)): 6.02 µM
- IC50 (cancer cell lines; Homo sapiens, SK-MEL-28, 72 h, SKMEL28, 72 h (Table 9)): 3.84 µM
- IC50 (cancer cell lines; Homo sapiens, SK-N-AS, 72 h, SKNAS, 72 h (Table 9)): 2.98 µM
- IC50 (cancer cell lines; Homo sapiens, SK-N-SH, 72 h, SKNSH, 72 h (Table 9)): 3.37 µM
- IC50 (cancer cell lines; Homo sapiens, SK-OV-3, 72 h, SKOV3, 72 h (Table 9)): 3.25 µM
- IC50 (cancer cell lines; Homo sapiens, SNB-75, 72 h, SNB75, 72 h (Table 9)): 3.27 µM
- IC50 (cancer cell lines; Homo sapiens, SU-DHL10, 72 h, SU-DHL-10, 72 h (Table 9)): 2.6 µM
- IC50 (cancer cell lines; Homo sapiens, SU-DHL-6, 72 h, SU-DHL-6, 72 h (Table 9)): 1.68 µM
- IC50 (cancer cell lines; Homo sapiens, SW-620, 72 h, SW620, 72 h (Table 9)): 3.81 µM
- IC50 (cancer cell lines; Homo sapiens, TE-671, 72 h, TE671, 72 h (Table 9)): > 50 µM
- IC50 (cancer cell lines; Homo sapiens, THP-1, 72 h, THP-1, 72 h (Table 9)): 2.93 µM
- IC50 (cancer cell lines; Homo sapiens, U2OS, 72 h, 72 h (Table 9)): 2.53 µM
- IC50 (cancer cell lines; Homo sapiens, U-87 MG, 72 h, U87MG, 72 h (Table 9)): 2.75 µM
- IC50 (cancer cell lines; Homo sapiens, UMUC3, 72 h, UMUC3, 72 h (Table 9)): 3.53 µM
- IC50 (cancer cell lines; Homo sapiens, UO-31, 72 h, UO31, 72 h (Table 9)): 4.71 µM
- IC50 (cancer cell lines; Homo sapiens, WSU-NHL, 72 h, 72 h (Table 9)): 3.17 µM
- IC50 (cancer cell lines; NCI-H358M, 72 h, NCIH358M, 72 h (Table 9)): 0.73 µM
- IC50 (cancer cell lines; PBMC, 72 h, 72 h (Table 9)): > 50 µM
- IC50 (cancer cell lines; RD-ES, 72 h, RDES, 72 h (Table 9)): 3.01 µM
- IC50 (human LINE-1): 0.0011 µM
SMILES: C#C[C@]1(CO)O[C@@H](n2cnc3c(N)nc(F)nc32)C[C@@H]1O [Islatravir (EFdA), Islatravir, reference compound]
